{"source": "patent US20260035387A1", "about": "(BIOGEN MA INC., priority 2022, published 2026)"}
{"test_system": "mHTT protein", "assay": "not given", "conditions": "HD mouse model; cited from earlier work"}
{"smiles": "CC1(C)CC(Oc2ccc(-c3ccc(-c4cn[nH]c4)cc3O)nn2)CC(C)(C)N1", "note": "[branaplam]", "mHTT protein levels": "lowers mHTT protein levels"}
{"test_system": "mutant Huntington (HTT) protein", "assay": "HTT Mutant HTRF iPSC assay (mHTT protein lowering)", "format": "cell-based", "conditions": "human iPSC derived from a HTT patient with a poly-Q49 mutation", "units": {"IC50": "nM"}}
{"smiles": "Cc1nc(NC(=O)c2cc3ccc(N4CCC5(CCCN5C)C4)nc3s2)cc2cn(C)nc12", "note": "(centres unmarked) [Compound 230, N-(2,7-dimethyl-2H-pyrazolo[3,4-c]pyridin-5-yl)-6-(1-methyl-1,7-diazaspiro[4.4]nonan-7-yl)thieno[2,3-b]pyridine-2-carboxamide]", "IC50": "< 100"}
{"smiles": "COc1cc2nn(C)cc2cc1NC(=O)c1cc2ccc(N3CC(N4CCC4)C3)nc2s1", "note": "[Compound 232, 6-([1,3′-biazetidin]-1′-yl)-N-(6-methoxy-2-methyl-2H-indazol-5-yl)thieno[2,3-b]pyridine-2-carboxamide]", "IC50": "< 100"}
{"smiles": "Cc1cn2cc(NC(=O)c3cc4ccc(N5CCN(C(C)C)CC5)nc4s3)nc(C)c2n1", "note": "[Compound 233, N-(2,8-dimethylimidazo[1,2-a]pyrazin-6-yl)-6-(4-isopropylpiperazin-1-yl)thieno[2,3-b]pyridine-2-carboxamide]", "IC50": "< 100"}
{"smiles": "COc1cc2nn(C)cc2cc1NC(=O)c1cc2ccc(N3CCC(N4CCC4)C3)nc2s1", "note": "(centres unmarked) [Compound 234, 6-(3-(azetidin-1-yl)pyrrolidin-1-yl)-N-(6-methoxy-2-methyl-2H-indazol-5-yl)thieno[2,3-b]pyridine-2-carboxamide]", "IC50": "< 100"}
{"smiles": "COc1c(NC(=O)c2cc3ccc(N4C[C@@H]5CN(C)C[C@@H]54)nc3s2)cc2cn(C)nc2c1F", "note": "[Compound 235, N-(7-fluoro-6-methoxy-2-methyl-2H-indazol-5-yl)-6-((1S,5R)-3-methyl-3,6-diazabicyclo[3.2.0]heptan-6-yl)thieno[2,3-b]pyridine-2-carboxamide]", "IC50": "< 100"}
{"smiles": "COc1cc2nn(C)cc2cc1NC(=O)c1cc2ccc(N3CC4(CCCN4C)C3)nc2s1", "note": "[Compound 236, N-(6-methoxy-2-methyl-2H-indazol-5-yl)-6-(5-methyl-2,5-diazaspiro[3.4]octan-2-yl)thieno[2,3-b]pyridine-2-carboxamide]", "IC50": "< 100"}
{"smiles": "Cc1cn2cc(NC(=O)c3cc4ccc(N5CC6CCNC6C5)nc4s3)cc(F)c2n1", "note": "(centres unmarked) [Compound 237, N-(8-fluoro-2-methylimidazo[1,2-a]pyridin-6-yl)-6-(hexahydropyrrolo[3,4-b]pyrrol-5(1H)-yl)thieno[2,3-b]pyridine-2-carboxamide]", "IC50": "< 100"}
{"smiles": "CNC1CCN(c2ccc3cc(C(=O)Nc4cc(F)c5nc(C)cn5c4)sc3n2)C1", "note": "(centres unmarked) [Compound 238, N-(8-fluoro-2-methylimidazo[1,2-a]pyridin-6-yl)-6-(3-(methylamino)pyrrolidin-1-yl)thieno[2,3-b]pyridine-2-carboxamide]", "IC50": "< 100"}
{"smiles": "CCN1CCN(c2ccc3cc(C(=O)Nc4cn5cc(C)nc5c(C)n4)sc3n2)CC1", "note": "[Compound 240, N-(2,8-dimethylimidazo[1,2-a]pyrazin-6-yl)-6-(4-ethylpiperazin-1-yl)thieno[2,3-b]pyridine-2-carboxamide]", "IC50": "< 100"}
{"smiles": "Cc1cn2cc(NC(=O)c3cc4ccc(N5CC6CCC(C5)N6C)nc4s3)nc(C)c2n1", "note": "[Compound 243, N-(2,8-dimethylimidazo[1,2-a]pyrazin-6-yl)-6-(8-methyl-3,8-diazabicyclo[3.2.1]octan-3-yl)thieno[2,3-b]pyridine-2-carboxamide]", "IC50": "< 100"}
{"smiles": "Cc1cn2cc(NC(=O)c3cc4ccc(N5C[C@H]6CCN[C@H]6C5)nc4s3)cc(F)c2n1", "note": "[Compound 245, N-(8-fluoro-2-methylimidazo[1,2-a]pyridin-6-yl)-6-((3aR,6aR)-hexahydropyrrolo[3,4-b]pyrrol-5(1H)-yl)thieno[2,3-b]pyridine-2-carboxamide]", "IC50": "< 100"}
{"smiles": "CN1CCC(c2ccc3nc(C(=O)Nc4cc(F)c5nn(C)cc5c4)sc3n2)CC1", "note": "[Compound 246, N-(7-fluoro-2-methyl-2H-indazol-5-yl)-5-(1-methylpiperidin-4-yl)thiazolo[5,4-b]pyridine-2-carboxamide]", "IC50": "100 to 1000"}
{"smiles": "CCN1CCN(c2cnc3cc(C(=O)Nc4cc5cn(C)nc5cc4OC)sc3n2)CC1", "note": "[Compound 247, 3-(4-ethylpiperazin-1-yl)-N-(6-methoxy-2-methyl-2H-indazol-5-yl)thieno[2,3-b]pyrazine-6-carboxamide]", "IC50": "< 100"}
{"smiles": "COc1cc2nn(C)cc2cc1NC(=O)c1cc2ncc(N3CCC4(CN(C)C4)C3)nc2s1", "note": "[Compound 248, N-(6-methoxy-2-methyl-2H-indazol-5-yl)-3-(2-methyl-2,6-diazaspiro[3.4]octan-6-yl)thieno[2,3-b]pyrazine-6-carboxamide]", "IC50": "100 to 1000"}
{"smiles": "COc1c(NC(=O)c2cc3ccc(C4CCN(C)CC4)nc3s2)cc2cn(C)nc2c1F", "note": "[Compound 249, N-(7-fluoro-6-methoxy-2-methyl-2H-indazol-5-yl)-6-(1-methylpiperidin-4-yl)thieno[2,3-b]pyridine-2-carboxamide]", "IC50": "< 100"}
{"smiles": "Cc1cn2cc(NC(=O)c3cc4ccc(N5CC[C@@H](N(C)C)C5)nc4s3)nc(C(F)F)c2n1", "note": "[Compound 250, (R)-N-(8-(difluoromethyl)-2-methylimidazo[1,2-a]pyrazin-6-yl)-6-(3-(dimethylamino)pyrrolidin-1-yl)thieno[2,3-b]pyridine-2-carboxamide]", "IC50": "< 100"}
{"smiles": "CCN1CCN(c2ccc3cc(C(=O)Nc4cn5cc(C)nc5c(C(F)F)n4)sc3n2)CC1", "note": "[Compound 253, N-(8-(difluoromethyl)-2-methylimidazo[1,2-a]pyrazin-6-yl)-6-(4-ethylpiperazin-1-yl)thieno[2,3-b]pyridine-2-carboxamide]", "IC50": "< 100"}
{"smiles": "CCOc1cn2nc(C)cc2cc1NC(=O)c1cc2ccc(N3CC4(CCN(C)C4)C3)nc2s1", "note": "[Compound 256, N-(6-ethoxy-2-methylpyrazolo[1,5-a]pyridin-5-yl)-6-(6-methyl-2,6-diazaspiro[3.4]octan-2-yl)thieno[2,3-b]pyridine-2-carboxamide]", "IC50": "< 100"}
{"smiles": "Cc1cn2cc(NC(=O)c3cc4ncc(N5CCC6(CN(C)C6)C5)nc4s3)cc(F)c2n1", "note": "[Compound 257, N-(8-fluoro-2-methylimidazo[1,2-a]pyridin-6-yl)-3-(2-methyl-2,6-diazaspiro[3.4]octan-6-yl)thieno[2,3-b]pyrazine-6-carboxamide]", "IC50": "100 to 1000"}
{"smiles": "Cc1cn2cc(NC(=O)c3cc4ncc(N5CC(C)(N)C5)nc4s3)cc(F)c2n1", "note": "[Compound 258, 3-(3-amino-3-methylazetidin-1-yl)-N-(8-fluoro-2-methylimidazo[1,2-a]pyridin-6-yl)thieno[2,3-b]pyrazine-6-carboxamide]", "IC50": "< 100"}
{"smiles": "CCN1CCN(c2ccc3oc(C(=O)Nc4cc5cc(C)nn5cc4OC)cc3n2)CC1", "note": "[Compound 259, 5-(4-ethylpiperazin-1-yl)-N-(6-methoxy-2-methylpyrazolo[1,5-a]pyridin-5-yl)furo[3,2-b]pyridine-2-carboxamide]", "IC50": "100 to 1000"}
{"smiles": "COc1nc(NC(=O)c2cc3nc(C4CCN(C)CC4)ccc3o2)cn2cc(C)nc12", "note": "[Compound 262, N-(8-methoxy-2-methylimidazo[1,2-a]pyrazin-6-yl)-5-(1-methylpiperidin-4-yl)furo[3,2-b]pyridine-2-carboxamide]", "IC50": "100 to 1000"}
{"smiles": "COc1cc2nn(C)cc2cc1NC(=O)c1cc2nc(N3CCN(C)CC3)ccc2o1", "note": "[Compound 263, N-(6-methoxy-2-methyl-2H-indazol-5-yl)-5-(4-methylpiperazin-1-yl)furo[3,2-b]pyridine-2-carboxamide]", "IC50": "< 100"}
{"smiles": "COc1cc(NC(=O)c2nc3ccc(N4CC5(CCN(C)C5)C4)nc3s2)cn2cc(C)nc12", "note": "[Compound 267, N-(8-methoxy-2-methylimidazo[1,2-a]pyridin-6-yl)-5-(6-methyl-2,6-diazaspiro[3.4]octan-2-yl)thiazolo[5,4-b]pyridine-2-carboxamide]", "IC50": "< 100"}
{"smiles": "Cc1cn2cc(NC(=O)c3cc4ncc(N5C[C@@H]6CN(C)C[C@@H]65)nc4s3)cc(F)c2n1", "note": "[Compound 268, N-(8-fluoro-2-methyl-imidazo[1,2-a]pyridin-6-yl)-3-[(1S,5R)-3-methyl-3,6-diazabicyclo[3.2.0]heptan-6-yl]thieno[2,3-b]pyrazine-6-carboxamide]", "IC50": "100 to 1000"}
{"smiles": "COc1cc2nn(C)cc2cc1NC(=O)c1cc2nc(C3CCN(C)CC3)ccc2o1", "note": "[Compound 269, N-(6-methoxy-2-methyl-2H-indazol-5-yl)-5-(1-methylpiperidin-4-yl)furo[3,2-b]pyridine-2-carboxamide]", "IC50": "100 to 1000"}
{"test_system": "mHTT protein", "assay": "not given", "conditions": "blood samples from SMA Type I patients dosed orally; cited from earlier work"}
{"smiles": "CC1(C)CC(Oc2ccc(-c3ccc(-c4cn[nH]c4)cc3O)nn2)CC(C)(C)N1", "note": "[branaplam]", "mHTT protein levels": "lowers mHTT protein levels"}
{"test_system": "mHTT protein", "assay": "not given", "conditions": "HD patient cells; cited from earlier work"}
{"smiles": "CC1(C)CC(Oc2ccc(-c3ccc(-c4cn[nH]c4)cc3O)nn2)CC(C)(C)N1", "note": "[branaplam]", "mHTT protein levels": "lowers mHTT protein levels"}
